Experiment [1] addresses T1, Prothrombin (Homo sapiens, UniProt P00734). The experiment in a line: Binding affinity values determined by clotting inhibition assays.
Experiment [2] has as its target T1, Prothrombin. The experiment in a line: Inhibitory concentration against Thrombin; 0.029-0.15 uM.

Four molecules from ChEMBL document CHEMBL1127748, “Binding of fluorescent and spin-labeled C-terminal hirudin analogs to thrombin” (J Med Chem, 1994) can be followed below.

For orientation: Ki means the dissociation constant of the complex between target and ligand, obtained from inhibition or displacement. Read a high Ki as weaker binding. With `CC[C@H](C)[C@H](NC(=O)[C@H]1CCCN1C(=O)[C@H](CCC(=O)O)NC(=O)[C@@H](Cc1ccc(O)cc1)NC(=O)CC(N)C(=O)CCCCCCCNC(=O)C1=CC(C)(C)N(O)C1(C)C)C(=O)N1CCC[C@@H]1C(=O)N[C@@H](CCC(=O)O)C(=O)N[C@H](CCC(=O)O)C(=O)N[C@@H](C)C(=O)N[C@H](CC1CCCCC1)C(=O)N[C@@H](CCC(=O)O)C(=O)O` (some centres undefined), in experiment [1], the inhibition constant (Ki) worked out at 100 nM.

Take `CC[C@H](C)[C@H](NC(=O)[C@H]1CCCN1C(=O)[C@H](CCC(=O)O)NC(=O)[C@@H](Cc1ccc(O)cc1)NC(=O)CC(N)C(=O)CCCCCCCNc1cccc2c(N(C)C)cccc12)C(=O)N1CCC[C@@H]1C(=O)N[C@@H](CCC(=O)O)C(=O)N[C@H](CCC(=O)O)C(=O)N[C@@H](C)C(=O)N[C@H](CC1CCCCC1)C(=O)N[C@@H](CCC(=O)O)C(=O)O` (some centres undefined): affinity in experiment [1] was put at a Ki of 100 nM.

Molecule `CC[C@H](C)[C@H](NC(=O)[C@H]1CCCN1C(=O)[C@H](CCC(=O)O)NC(=O)[C@@H](Cc1ccc(O)cc1)NC(=O)CC(N)C(=O)CCCCCCCNC(=O)c1ccccc1N)C(=O)N1CCC[C@@H]1C(=O)N[C@@H](CCC(=O)O)C(=O)N[C@H](CCC(=O)O)C(=O)N[C@@H](C)C(=O)N[C@H](CC1CCCCC1)C(=O)N[C@@H](CCC(=O)O)C(=O)O` (some centres undefined) gave a Ki in experiment [1] of 100 nM. This lies in the sub-micromolar range.

Broadly, the IC50 is the concentration at which inhibition is half-maximal. `CC[C@H](C)[C@H](NC(=O)[C@H]1CCCN1C(=O)[C@H](CCC(=O)O)NC(=O)[C@@H](Cc1ccc(O)cc1)NC(=O)CCC(=O)O)C(=O)N1CCC[C@@H]1C(=O)N[C@@H](CCC(=O)O)C(=O)N[C@H](CCC(=O)O)C(=O)N[C@@H](C)C(=O)N[C@H](CC1CCCCC1)C(=O)N[C@@H](CCC(=O)O)C(=O)O`: the 50% inhibitory concentration (IC50) in experiment [2] is 29 nM.
